The values below come from ChEMBL document CHEMBL3046656, “Apoptotic effects of some carbazole derivatives on lung carcinoma and glioma cell lines” (Med Chem Res, 2013).

Values after ≈ are worked out from the molar mass of the structure shown. Active and inactive are the calls of the source. The calls are words filed in the database; no cut-off is given here. Bounds are passed on as bounds.

For experiment [1], the system named is C6. The experiment is described as follows: Induction of apoptosis in Rattus norvegicus (rat) C6 cells assessed as late apoptotic cells at IC50 after 24 hr by annexin V FITC/propidium iodide staining-based FACS flow cytometric analysis (reference value: 1.1%). The class given is functional. In general terms: Flow cytometry measures light scatter and fluorescence of single cells or particles in a stream.

In experiment [2] the test system is A549. Put plainly: Induction of apoptosis in Homo sapiens (human) A549 cells assessed as viable cells at IC50 after 24 hr by annexin V FITC/propidium iodide staining-based FACS flow cytometric analysis (reference value: 96.5%). The format is functional.
For experiment [3], the system named is C6. The experiment is described as follows: Cytotoxicity against Rattus norvegicus (rat) C6 cells after 24 hr by MTT assay. As to conditions: C6, 24 h. The format is functional, cell-based. For orientation: Tetrazolium assays rely on reduction of a dye to a coloured formazan, in cell work by metabolically active cells.
For experiment [4], the system named is A549. Put plainly: Cytotoxicity against Homo sapiens (human) A549 cells after 24 hr by MTT assay. The class given is functional, cell-based. Particulars: A549, 24 h.
Experiment [5] has as its system C6. Put plainly: Induction of apoptosis in Rattus norvegicus (rat) C6 cells assessed as viable cells at IC50 after 24 hr by annexin V FITC/propidium iodide staining-based FACS flow cytometric analysis (reference value: 96.4%). The format is functional.
The test system of experiment [6] is A549. The experiment is described as follows: Inhibition of nuclear DNA synthesis in Homo sapiens (human) A549 cells assessed as decrease in bromodeoxyuridine incorporation measured during S phase after 24 hr by ELISA. The format is functional, cell-based.
Experiment [7] has as its system C6. The experiment is described as follows: Induction of apoptosis in Rattus norvegicus (rat) C6 cells assessed as early apoptotic cells at IC50 after 24 hr by annexin V FITC/propidium iodide staining-based FACS flow cytometric analysis (reference value: 0.5%). The class given is functional.
The test system of experiment [8] is C6. Put plainly: Inhibition of nuclear DNA synthesis in Rattus norvegicus (rat) C6 cells assessed as decrease in bromodeoxyuridine incorporation measured during S phase after 24 hr by ELISA. The format is functional, cell-based. In general terms: ELISA stands for enzyme-linked immunosorbent assay.
Experiment [9] deals with Acetylcholinesterase (Electrophorus electricus) (UniProt O42275). Put plainly: Inhibition of Electrophorus electricus (electric eel) AChE using acetylthiocholine iodide as substrate at 80 ug/mL incubated for 15 min prior to substrate addition measured after 30 min by Ellman's spectrophotometric method relative to control.
The test system of experiment [10] is NIH3T3. The experiment is described as follows: Cytotoxicity against Mus musculus (mouse) NIH/3T3 cells after 24 hr by MTT assay. The class given is cell-based. As to conditions: NIH3T3, 24 h.
Experiment [11] deals with C6. Put plainly: Induction of necrosis in Rattus norvegicus (rat) C6 cells at IC50 after 24 hr by annexin V FITC/propidium iodide staining-based FACS flow cytometric analysis relative to untreated control. The class given is functional.
The subject of experiment [12] is A549. Put plainly: Induction of apoptosis in Homo sapiens (human) A549 cells assessed as late apoptotic cells at IC50 after 24 hr by annexin V FITC/propidium iodide staining-based FACS flow cytometric analysis (reference value: 0.4%). The class given is functional.
The target of experiment [13] is Acetylcholinesterase (Electrophorus electricus, UniProt O42275). The experiment is described as follows: Inhibition of Electrophorus electricus (electric eel) AChE using acetylthiocholine iodide as substrate incubated for 15 min prior to substrate addition measured after 30 min by Ellman's spectrophotometric method.
In experiment [14] the test system is C6. Put plainly: Inhibition of nuclear DNA synthesis in Rattus norvegicus (rat) C6 cells assessed as decrease in bromodeoxyuridine incorporation measured during S phase at 3.9 to 7.8 ug/mL after 24 hr by ELISA. The class given is functional.
For experiment [15], the system named is A549. The experiment is described as follows: Induction of apoptosis in Homo sapiens (human) A549 cells assessed as early apoptotic cells at IC50 after 24 hr by annexin V FITC/propidium iodide staining-based FACS flow cytometric analysis (reference value: 0.5%). The class given is functional.
Experiment [16] relates to A549. Put plainly: Induction of necrosis in Homo sapiens (human) A549 cells at IC50 after 24 hr by annexin V FITC/propidium iodide staining-based FACS flow cytometric analysis relative to untreated control. The format is functional.
Experiment [17] concerns A549. The experiment is described as follows: Inhibition of nuclear DNA synthesis in Homo sapiens (human) A549 cells assessed as decrease in bromodeoxyuridine incorporation measured during S phase at 15.6 to 62.5 ug/mL after 24 hr by ELISA. The format is functional.
Experiment [18] concerns C6. Put plainly: Inhibition of nuclear DNA synthesis in Rattus norvegicus (rat) C6 cells assessed as decrease in bromodeoxyuridine incorporation measured during S phase at 15.6 to 31.2 ug/mL after 24 hr by ELISA. The format is functional.
Experiment [19] relates to C6. Put plainly: Inhibition of nuclear DNA synthesis in Rattus norvegicus (rat) C6 cells assessed as decrease in bromodeoxyuridine incorporation measured during S phase at IC50 after 24 hr by ELISA. The class given is functional.
The subject of experiment [20] is A549. Put plainly: Inhibition of nuclear DNA synthesis in Homo sapiens (human) A549 cells assessed as decrease in bromodeoxyuridine incorporation measured during S phase at IC50 after 24 hr by ELISA. The format is functional.

Sequence of Acetylcholinesterase (O42275 whole entry): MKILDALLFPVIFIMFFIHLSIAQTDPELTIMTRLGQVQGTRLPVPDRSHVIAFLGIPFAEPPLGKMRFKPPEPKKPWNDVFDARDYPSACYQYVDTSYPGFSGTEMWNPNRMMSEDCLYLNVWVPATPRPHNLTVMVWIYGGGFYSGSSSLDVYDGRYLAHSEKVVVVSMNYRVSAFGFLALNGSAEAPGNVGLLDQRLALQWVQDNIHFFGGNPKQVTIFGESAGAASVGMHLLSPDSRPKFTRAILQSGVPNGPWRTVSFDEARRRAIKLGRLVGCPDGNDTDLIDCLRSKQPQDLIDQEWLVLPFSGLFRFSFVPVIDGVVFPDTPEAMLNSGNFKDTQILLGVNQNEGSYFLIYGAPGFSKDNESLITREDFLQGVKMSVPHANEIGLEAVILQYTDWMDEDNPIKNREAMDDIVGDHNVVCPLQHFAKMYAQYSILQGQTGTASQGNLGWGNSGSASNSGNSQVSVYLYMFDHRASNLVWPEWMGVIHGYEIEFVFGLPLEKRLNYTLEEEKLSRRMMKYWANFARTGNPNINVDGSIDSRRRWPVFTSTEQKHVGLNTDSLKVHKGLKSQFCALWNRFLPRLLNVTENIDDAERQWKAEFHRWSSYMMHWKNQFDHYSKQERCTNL
Sequence of Acetylcholinesterase (Electrophorus electricus) (O42275 24-633 limits assumed): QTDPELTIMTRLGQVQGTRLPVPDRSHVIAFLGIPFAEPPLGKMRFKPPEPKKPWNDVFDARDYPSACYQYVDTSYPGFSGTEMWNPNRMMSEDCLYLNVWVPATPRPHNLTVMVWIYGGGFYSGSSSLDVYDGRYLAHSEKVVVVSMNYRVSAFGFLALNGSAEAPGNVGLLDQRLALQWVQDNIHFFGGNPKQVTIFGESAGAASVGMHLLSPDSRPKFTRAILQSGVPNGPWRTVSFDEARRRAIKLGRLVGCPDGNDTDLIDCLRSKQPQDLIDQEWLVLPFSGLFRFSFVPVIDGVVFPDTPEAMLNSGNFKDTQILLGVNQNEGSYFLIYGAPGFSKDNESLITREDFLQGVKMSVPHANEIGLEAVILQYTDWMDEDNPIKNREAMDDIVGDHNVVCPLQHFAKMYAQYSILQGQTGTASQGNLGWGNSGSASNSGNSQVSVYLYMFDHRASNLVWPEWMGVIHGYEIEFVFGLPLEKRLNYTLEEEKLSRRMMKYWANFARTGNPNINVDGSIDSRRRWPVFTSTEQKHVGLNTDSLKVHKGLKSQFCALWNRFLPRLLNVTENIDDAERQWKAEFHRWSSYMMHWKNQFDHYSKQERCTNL

One may read the IC50 as the point on the concentration scale where inhibition reaches its midpoint. A low value points to greater potency. By inhibition is commonly meant the share of the control response that was lost under treatment. In the case of `CCn1c2ccccc2c2cc(NC(=O)CSC(=S)N3CCN(CCN(C)C)CC3)ccc21`, the Activity in experiment [1] was 11.5%; in [2], 65%; in experiment [5] it was 4.7%; in experiment [7], 83.7%; in [11], 0.2%; in experiment [12] it was 8.1%. Moreover, the figures for the Activity in experiment [15] and in experiment [16] were 10.3% and 16.6%, respectively. In addition, the IC50 in [3] is 5.9 µg/mL (≈ 12.2 µM); in [4] it was 41 µg/mL (≈ 84.8 µM); in experiment [10], 44.3 µg/mL (≈ 91.6 µM); in experiment [13], 15.5 µM. For the same compound, the inhibition result is “Dose-dependent effect” in [6], “Dose-dependent effect” in experiment [8] and 91.3% in [9]. Further, the “inhibition (INH)” value is recorded as 87.1% in experiment [14] and 53.4% in experiment [17].

`CCn1c2ccccc2c2cc(NC(=O)CSC(=S)N3CCOCC3)ccc21`: the IC50 in experiment [3] was 180 µg/mL (≈ 435 µM); in [4] it was 25.7 µg/mL (≈ 62.1 µM); in experiment [10], 127 µg/mL (≈ 306 µM); in experiment [13], above 193 µM. Further, the inhibition entry in [6] was “Dose-dependent effect”; in [8] it was “Dose-dependent effect”; in experiment [9], 15.4%. Further, the inhibition result in [17] is “Active”.

On to `CCn1c2ccccc2c2cc(NC(=O)CSC(=S)N3CCC(C)CC3)ccc21`, for which the IC50 in [3] is 167 µg/mL (≈ 392 µM); in experiment [4], 313 µg/mL (≈ 736 µM); in [10], above 500 µg/mL; in experiment [13], above 188 µM. In addition, the inhibition entry in experiment [6] is “Dose-dependent effect”; in experiment [8] it was “Dose-dependent effect”; in [9], 23.6%. In addition, in [17], the inhibition result was “Active”.

Consider `CCN(CC)C(=S)SCC(=O)Nc1ccc2c(c1)c1ccccc1n2CC`, for which the IC50 in experiment [3] is 64.3 µg/mL (≈ 161 µM); in experiment [4], 41.7 µg/mL (≈ 104 µM); in experiment [10], 390 µg/mL (≈ 976 µM); in experiment [13], above 200 µM. The inhibition entry in experiment [6] was “Dose-dependent effect”; in [8] it was “Dose-dependent effect”; in [9] it was 18.3%. Further, the inhibition result in experiment [17] is “Active”.

As to `CCn1c2ccccc2c2cc(NC(=O)CSC(=S)N3CCN(c4ccccc4)CC3)ccc21`, the IC50 in [3] is 143 µg/mL (≈ 293 µM); in experiment [4] it was 193 µg/mL (≈ 395 µM); in [10], 357 µg/mL (≈ 730 µM); in experiment [13], above 164 µM. Besides, the inhibition result in [6] is “Dose-dependent effect”; in experiment [8], “Dose-dependent effect”; in experiment [9] it was 26.6%. Further, the inhibition result in [17] was “Active”.

On to `CCn1c2ccccc2c2cc(NC(=O)CSC(=S)N3CCCC3)ccc21`, for which the IC50 in [3] was 75 µg/mL (≈ 189 µM); in [4], 193 µg/mL (≈ 486 µM); in [10], 270 µg/mL (≈ 679 µM); in experiment [13] it was above 201 µM. The inhibition entry was “Dose-dependent effect” in experiment [6], “Dose-dependent effect” in experiment [8] and 9.05% in experiment [9]. Further, in experiment [17], the inhibition result was “Active”.

Take `CCn1c2ccccc2c2cc(NC(=O)CSC(=S)N3CCN(Cc4ccccc4)CC3)ccc21`: the IC50 in experiment [3] was 170 µg/mL (≈ 338 µM); in experiment [4], 107 µg/mL (≈ 212 µM); in experiment [10], 110 µg/mL (≈ 218 µM); in experiment [13] it was above 159 µM. The figures for the inhibition entry in [6], in [8] and in experiment [9] were “Dose-dependent effect”, “Dose-dependent effect” and 12.8%, respectively. In addition, the inhibition entry in experiment [17] is “Active”.

Turning to `CCN1CCN(C(=S)SCC(=O)Nc2ccc3c(c2)c2ccccc2n3CC)CC1`, the IC50 in experiment [3] was 20 µg/mL (≈ 45.4 µM); in experiment [4], 61.7 µg/mL (≈ 140 µM); in [10], below 3.9 µg/mL; in [13], above 182 µM. The inhibition result is “Dose-dependent effect” in experiment [6], “Dose-dependent effect” in [8] and 19.6% in experiment [9]. Moreover, the inhibition entry in experiment [17] was “Active”.

Turning to `CCn1c2ccccc2c2cc(NC(=O)CSC(=S)N3CCCCC3)ccc21`, the IC50 in [3] was 198 µg/mL (≈ 482 µM); in [4] it was 177 µg/mL (≈ 429 µM); in experiment [10], 393 µg/mL (≈ 956 µM); in experiment [13], above 194 µM. Also, the results for the inhibition result in experiment [6], in experiment [8] and in experiment [9] were “Dose-dependent effect”, “Dose-dependent effect” and 11.3%, respectively. The inhibition entry in [17] was “Active”.

For the compound `CCn1c2ccccc2c2cc(NC(=O)CSC(=S)N3CCN(C)CC3)ccc21`, the Activity in experiment [1] is 8.8%; in experiment [2], 94.5%; in experiment [5], 82.3%; in [7] it was 7.3%; in [11], 0%; in experiment [12] it was 0.4%. Also, the Activity in experiment [15] is given as 1.8%; in experiment [16], 3.3%. Further, the IC50 is 21.3 µg/mL (≈ 49.9 µM) in [3], 34.3 µg/mL (≈ 80.4 µM) in [4], 48.7 µg/mL (≈ 114 µM) in [10] and above 188 µM in experiment [13]. The inhibition result in experiment [6] was “Dose-dependent effect”; in experiment [8], “Dose-dependent effect”; in experiment [9], 21.1%. Moreover, the “inhibition (INH)” value in experiment [18] stood at 45.5%; in experiment [17], 46.6%.

With `CCn1c2ccccc2c2cc(NC(=O)CSC(=S)N3CCCCC3C)ccc21` (stereo unspecified), the Activity in experiment [1] was determined as 5.1%; in experiment [2], 93.3%; in experiment [5], 88.3%; in experiment [7], 6.2%; in experiment [11], 0.3%; in experiment [12] it was 1%. The Activity in experiment [15] came to 2.8%; in experiment [16], 2.9%. Also, the IC50 is 26.7 µg/mL (≈ 62.7 µM) in experiment [3], 29.3 µg/mL (≈ 68.8 µM) in experiment [4], 257 µg/mL (≈ 603 µM) in experiment [10] and above 188 µM in [13]. The inhibition result in experiment [6] is “Dose-dependent effect”; in [8], “Dose-dependent effect”; in experiment [9], 18%. Also, the “inhibition (INH)” value came out at 48.3% in [18] and 71.2% in [17].

For the compound `O=C1c2c(O)ccc(O)c2C(=O)c2c(NCCNCCO)ccc(NCCNCCO)c21` [MITOXANTRONE], the values for the IC50 in experiment [3] and in experiment [4] were 10.9 µg/mL (≈ 24.5 µM) and 25.3 µg/mL (≈ 56.9 µM), respectively. Besides, the “inhibition (INH)” value in experiment [19] was 84.6%; in [20], 67.3%. The inhibition result in [6] and in experiment [8] was “Dose-dependent effect” in each case.
